Laboratory results published in US7408359B2, “Current measuring device having artificial lipid bilayer membrane” (Japan Science and Technology Agency, priority 2003, dated 2008).

Columns and labels:
[1] = biological target: T1, plain muscle Ca2+ dependency K+ channel (Bos taurus, UniProt Q28204); assay: Single channel current measurement of plain muscle Ca2+ dependency K+ channel in artificial lipid bilayer membrane; format: biochemical, bovine; conditions: 100 mM KCl, 10 mM Hepes (pH 7.4)
T1 construct: inserting a K^+ channel on the vesicle membrane into the artificial lipid bilayer membrane 2; from tissue; host or cells: bovine tracheal smooth (plain) muscle membrane vesicles
T1 sequence (Q28204 whole entry): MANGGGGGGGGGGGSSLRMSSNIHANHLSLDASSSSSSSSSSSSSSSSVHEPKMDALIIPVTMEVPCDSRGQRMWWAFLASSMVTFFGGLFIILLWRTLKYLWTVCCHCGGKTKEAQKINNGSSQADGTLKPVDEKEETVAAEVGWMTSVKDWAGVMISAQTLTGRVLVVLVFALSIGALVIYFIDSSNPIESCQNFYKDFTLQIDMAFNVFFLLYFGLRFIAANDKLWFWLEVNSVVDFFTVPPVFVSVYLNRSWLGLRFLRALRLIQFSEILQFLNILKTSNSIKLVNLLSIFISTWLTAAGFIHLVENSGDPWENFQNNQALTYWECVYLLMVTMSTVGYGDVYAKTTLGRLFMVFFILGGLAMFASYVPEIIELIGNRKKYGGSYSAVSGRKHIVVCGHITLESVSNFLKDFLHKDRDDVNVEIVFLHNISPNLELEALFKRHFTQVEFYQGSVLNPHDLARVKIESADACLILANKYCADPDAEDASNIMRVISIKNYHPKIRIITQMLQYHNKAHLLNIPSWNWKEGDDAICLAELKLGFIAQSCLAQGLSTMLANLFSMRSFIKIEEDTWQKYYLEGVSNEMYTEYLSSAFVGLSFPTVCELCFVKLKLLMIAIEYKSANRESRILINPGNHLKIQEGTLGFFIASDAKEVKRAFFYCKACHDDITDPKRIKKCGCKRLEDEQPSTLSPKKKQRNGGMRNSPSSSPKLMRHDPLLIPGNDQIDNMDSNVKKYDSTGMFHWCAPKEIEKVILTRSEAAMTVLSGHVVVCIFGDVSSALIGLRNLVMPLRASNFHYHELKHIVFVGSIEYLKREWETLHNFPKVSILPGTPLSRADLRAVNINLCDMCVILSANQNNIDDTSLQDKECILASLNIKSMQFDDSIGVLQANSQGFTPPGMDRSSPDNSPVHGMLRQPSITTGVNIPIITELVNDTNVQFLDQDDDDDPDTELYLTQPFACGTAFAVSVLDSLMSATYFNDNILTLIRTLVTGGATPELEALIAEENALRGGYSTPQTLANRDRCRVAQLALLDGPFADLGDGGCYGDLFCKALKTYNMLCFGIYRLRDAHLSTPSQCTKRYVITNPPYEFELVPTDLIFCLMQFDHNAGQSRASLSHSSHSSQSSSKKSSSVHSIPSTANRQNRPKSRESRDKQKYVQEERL
T1 sequence (Q28067 whole entry partner): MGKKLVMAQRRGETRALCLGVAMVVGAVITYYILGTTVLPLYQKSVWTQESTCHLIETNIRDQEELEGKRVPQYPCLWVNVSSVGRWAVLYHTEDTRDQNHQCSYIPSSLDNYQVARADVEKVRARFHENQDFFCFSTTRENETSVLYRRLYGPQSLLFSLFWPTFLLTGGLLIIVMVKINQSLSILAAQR
Text: (§1) In the present Example, a current measuring device according to the present invention (FIG. 5) was used. […] In the bottom 9, a small hole 4 whose diameter was 0.15 mm was provided. A square glass plate whose thickness was 0.17 mm and each side was 18 mm was used as the bottom plate 6. Further, an agarose gel layer whose thickness was 100 nm was formed on the bottom plate 6 as the support layer 5 so as to be positioned in a face contacting the upper solution chamber 3. […] In measuring a current, a patch-clamp amplifier (CEZ-2400 produced by Nihon Kohden Corporation) was used, and the measured current was recorded on a DAT tape by using a DAT recorder. […]
Thereafter, lipid solution obtained by dissolving phosphatidylcholine (product of Sigma) in decane so that its concentration was 20 mg/mL was applied to the small hole 4 provided in the bottom 9 of the upper solution chamber 3. […] By using the thus produced current measuring device, a current was measured with time.
Subsequently, only the CaCl2 concentration of the aqueous solution with which the upper solution chamber 3 and the lower solution chamber 8 were filled was changed into 1 mM. Under this condition, a current measuring device was produced in the same manner, and a current was measured.

[2] = biological target: T2, ryanodine receptor channel (Ca- channel) (Sus scrofa, UniProt A0A5G2R1W3); assay: Single channel current measurement and fluorescence observation of ryanodine receptor channel in artificial lipid bilayer membrane; format: biochemical, swine; conditions: 1 to 10 nM Cy5-labeled ryanodine added from the upside of the membrane; 500 mM Na-methanesulfonic acid, 40 mM Hepes (pH 7.4), 0.01-0.1 μM Ca2+
T2 construct: a cell membrane vesicle sampled from a swine cardiac muscle; from tissue; host or cells: swine cardiac muscle membrane vesicles
Text: as §1
Thereafter, solution obtained by dissolving phosphatidylcholine in decane so that its concentration was 20 mg/ml was applied to the small hole 4 provided in the bottom 9 of the upper solution chamber 3. […] At this time, the ryanodine receptor channel on the vesicle membrane was fluorescence-labeled with fluorescent dye Cy5 (product of Amensham Pharmacia) in advance, and then the cell membrane vesicle was fused with the artificial lipid bilayer membrane 2. The fluorescence labeling of the ryanodine receptor channel was carried out as follows: a corresponding specific monoclonal antibody was labeled with Cy5, and the thus labeled antibody was coupled with the ryanodine receptor channel. […]

Compound	state of the ion channel (current trace) ([1]; CaCl2 1 mM)	state of the ion channel (current trace) ([1]; CaCl2 10^-9 M)	channel activity (current trace after addition) [2]
[Ca+2].[Cl-].[Cl-] [CaCl2]	more likely to open	closed	
ryanodine			activation of the ryanodine receptor channel occurs
